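Growth conditions: 96-well plates. Treatment: test compound, 48 hours, 5 concentrations. Analysis: linear interpolation between bracketing concentrations; unreached endpoints set to highest concentration. Abbreviation: GI50, concentration required for 50% inhibition of growth.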 Activity calls are given as the source filed them. Cut-off read from the data, not from the text of the source: active = GI50 up to about 1.1 µM and inactive = higher. Where a SMILES comes first, the peptide text is derived from it. [ ]: non-standard residue; d: D form. The star is where a group is joined. NMeAc5c = CNC1(C(=O)O)CCCC1; Boc = CC(C)(C)OC(=O)*; OBn = c1ccc(CO*)cc1
Tests used:
Assay in all cases: DTP human tumour cell line panel, 48 h
CCRF-CEM = system: CCRF-CEM
DU-145 = system: DU-145
HOP-92 = system: HOP-92
K562 = system: K562
LOX IMVI = system: LOX IMVI
MCF7 = system: MCF7
MOLT-4 = system: MOLT-4
NCI-H23 = system: NCI-H23
NCI-H460 = system: NCI-H460
NCI-H522 = system: NCI-H522
OVCAR-8 = system: OVCAR-8
PC-3 = system: PC-3
SK-MEL-5 = system: SK-MEL-5
SNB-19 = system: SNB-19
SNB-75 = system: SNB-75
T47D = system: T47D
UO-31 = system: UO-31
SK-OV-3 = system: SK-OV-3
UACC-62 = system: UACC-62
A498 = system: A498

| Compound | GI50 (CCRF-CEM) | GI50 (DU-145) | GI50 (HOP-92) | GI50 (K562) | GI50 (LOX IMVI) | GI50 (MCF7) | GI50 (MOLT-4) | GI50 (NCI-H23) | GI50 (NCI-H460) | GI50 (NCI-H522) | GI50 (OVCAR-8) | GI50 (PC-3) | GI50 (SK-MEL-5) | GI50 (SNB-19) | GI50 (SNB-75) | GI50 (T47D) | GI50 (UO-31) | GI50 (SK-OV-3) | GI50 (UACC-62) | GI50 (A498) |
| --- | --- | --- | --- | --- | --- | --- | --- | --- | --- | --- | --- | --- | --- | --- | --- | --- | --- | --- | --- | --- |
| NCCC(=O)NC(Cc1c[nH]cn1)C(=O)O (stereo unspecified) | > 100 µM (inactive) | > 100 µM (inactive) | > 100 µM (inactive) | > 100 µM (inactive) | > 100 µM (inactive) | > 100 µM (inactive) | > 100 µM (inactive) | > 100 µM (inactive) | > 100 µM (inactive) | > 100 µM (inactive) | > 100 µM (inactive) | > 100 µM (inactive) | > 100 µM (inactive) | > 100 µM (inactive) | > 100 µM (inactive) | > 100 µM (inactive) | > 100 µM (inactive) |  |  |  |
| C=CC1(c2ccc(Br)cc2)OCCCO1 | > 100 µM (inactive) | > 100 µM (inactive) | > 100 µM (inactive) | > 100 µM (inactive) | > 100 µM (inactive) | > 100 µM (inactive) | > 100 µM (inactive) | > 100 µM (inactive) | > 100 µM (inactive) | > 100 µM (inactive) | > 100 µM (inactive) | > 100 µM (inactive) | > 100 µM (inactive) | > 100 µM (inactive) | > 100 µM (inactive) | > 100 µM (inactive) | > 100 µM (inactive) | > 100 µM (inactive) | > 100 µM (inactive) |  |
| ClC1(Cl)C2CCOC21n1cnc2ccccc21 (stereo unspecified) | > 100 µM (inactive) | > 100 µM (inactive) |  | > 100 µM (inactive) | 98.2 µM (inactive) | > 100 µM (inactive) | > 100 µM (inactive) | 45 µM (inactive) |  | 14.6 µM (inactive) | > 100 µM (inactive) | > 100 µM (inactive) | > 100 µM (inactive) | > 100 µM (inactive) | > 100 µM (inactive) | > 100 µM (inactive) | 53.8 µM (inactive) | > 100 µM (inactive) | 92.9 µM (inactive) |  |
| Cc1ccc(S(=O)(=O)c2scc(-c3ccccc3)c2C)cc1 |  | 93.5 µM (inactive) | 72.4 µM (inactive) | 53 µM (inactive) | 64.3 µM (inactive) | 61.1 µM (inactive) | 42.7 µM (inactive) | 38.1 µM (inactive) | > 100 µM (inactive) | > 100 µM (inactive) | > 100 µM (inactive) | 89.3 µM (inactive) | 40.2 µM (inactive) | > 100 µM (inactive) | > 100 µM (inactive) | 36.5 µM (inactive) | > 100 µM (inactive) | > 100 µM (inactive) | > 100 µM (inactive) |  |
| O=c1[nH]c(=O)n(C2OC(CO)C(O)C2O)cc1OCCCc1ccccc1 (stereo unspecified) | > 100 µM (inactive) | > 100 µM (inactive) |  |  | > 100 µM (inactive) | > 100 µM (inactive) | > 100 µM (inactive) | > 100 µM (inactive) | > 100 µM (inactive) |  | > 100 µM (inactive) | > 100 µM (inactive) | > 100 µM (inactive) | > 100 µM (inactive) |  | > 100 µM (inactive) |  | > 100 µM (inactive) | > 100 µM (inactive) | > 100 µM (inactive) |
| Cc1ccsc1/C=N/NC1=NCCN1 | > 100 µM (inactive) | > 100 µM (inactive) | > 100 µM (inactive) | > 100 µM (inactive) | > 100 µM (inactive) | > 100 µM (inactive) | > 100 µM (inactive) | > 100 µM (inactive) |  |  | > 100 µM (inactive) | > 100 µM (inactive) | > 100 µM (inactive) | > 100 µM (inactive) | > 100 µM (inactive) | > 100 µM (inactive) | > 100 µM (inactive) | > 100 µM (inactive) | > 100 µM (inactive) | > 100 µM (inactive) |
| CNNC1=NS(=O)(=O)c2cc(C(=O)OC)c(Cl)cc2S1 | > 10 µM (inactive) | > 10 µM (inactive) |  | > 10 µM (inactive) | > 10 µM (inactive) | > 10 µM (inactive) | > 10 µM (inactive) | > 10 µM (inactive) | > 10 µM (inactive) | > 10 µM (inactive) | > 10 µM (inactive) | > 10 µM (inactive) | > 10 µM (inactive) | > 10 µM (inactive) | > 10 µM (inactive) | > 10 µM (inactive) | 0.001 µM (active) | > 10 µM (inactive) | > 10 µM (inactive) | > 10 µM (inactive) |
| COCn1cnc2c(=O)n(-c3ccc(OC)cc3)c(=S)n(-c3ccc(OC)cc3)c21 | > 100 µM (inactive) | > 100 µM (inactive) |  | > 100 µM (inactive) | > 100 µM (inactive) | > 100 µM (inactive) | > 100 µM (inactive) | > 100 µM (inactive) | > 100 µM (inactive) | > 100 µM (inactive) | > 100 µM (inactive) | > 100 µM (inactive) | > 100 µM (inactive) |  | > 100 µM (inactive) | > 100 µM (inactive) | > 100 µM (inactive) | > 100 µM (inactive) | > 100 µM (inactive) | > 100 µM (inactive) |
| O=C(CC(C(=O)c1cccs1)c1ccccc1)c1ccccc1O (stereo unspecified) | 2.55 µM (inactive) | 36.4 µM (inactive) | 7.6 µM (inactive) | 3.1 µM (inactive) | 12.4 µM (inactive) | 9.86 µM (inactive) | 7.08 µM (inactive) | > 42.6 µM (inactive) | 48.1 µM (inactive) | 3.21 µM (inactive) | 9.62 µM (inactive) | 14 µM (inactive) | 9.48 µM (inactive) | 23.9 µM (inactive) | > 20.6 µM (inactive) | 9.66 µM (inactive) | 18.5 µM (inactive) | 8.57 µM (inactive) | 14.7 µM (inactive) |  |
| O=P(Oc1ccc(Cl)cc1)(Oc1ccc(Cl)cc1)N1CC1 | 0.174 µM (active) | > 10 µM (inactive) |  | > 10 µM (inactive) | > 10 µM (inactive) | > 10 µM (inactive) | > 10 µM (inactive) | > 10 µM (inactive) | > 10 µM (inactive) |  | > 10 µM (inactive) | > 10 µM (inactive) | > 10 µM (inactive) | > 10 µM (inactive) | > 10 µM (inactive) | > 10 µM (inactive) | > 10 µM (inactive) | > 10 µM (inactive) | > 10 µM (inactive) | > 10 µM (inactive) |
| CN(C(=O)C(Cc1ccccc1)NC(=O)OC(C)(C)C)C1(C(=O)NC(Cc2ccccc2)C(=O)OCc2ccccc2)CCCC1 (stereo not drawn) (Boc-Phe-[NMeAc5c]-Phe-OBn; configuration not given here) | 39.7 µM (inactive) | 58.3 µM (inactive) | 53.7 µM (inactive) | 29.8 µM (inactive) | 45.1 µM (inactive) | 32.1 µM (inactive) | 26.9 µM (inactive) | 43.7 µM (inactive) | 23.6 µM (inactive) |  | 38 µM (inactive) | 28.4 µM (inactive) | 59.6 µM (inactive) | 53.5 µM (inactive) | > 100 µM (inactive) | 75.5 µM (inactive) | 25.9 µM (inactive) | 0.653 µM (active) | 24.5 µM (inactive) |  |
